We go through six compounds from patent publication US9498463B2, “Compound obtained from gamboge resin, and medical uses of the same” (priority 2010, dated 2016).

The test system of one data set is caspases. The note with it: cited from earlier work.
A further data set in a line: in vitro. From the text:
(§1) In Vitro Anti-Cancer Test
(§2) The in vitro anti-cancer test was primarily used to detect the effect of a candidate drug on cancer cell proliferation. The working principle involved therein is the ability of viable cells to shift alamarBlue (AbD Serotec, UK) from its originally non-fluorescent oxidized state (non-fluorescent, blue) to a reduced form (fluorescent, red) having fluorescence via metabolic reaction. According to the fluorescent data result generated by the alamarBlue reagent thus obtained, the proliferation of the viable cells and cell activity can be quantified for detection.
(§3) In the in vitro anti-cancer tests, a candidate drug was tested at 5 different concentrations of 0.01, 0.1, 1, 10, and 100 μg/ml, and six human cancer cell lines and a normal human cell line were used (see Table 5).

The test system of data set [1] is Human breast adenocarcinoma cell MCF7. In words: cells. The note with it: Homo sapiens; for IC50: MCF7, read-out: IC50 (50% inhibition concentration); for CC50: MCF7, read-out: LC50 (50% lethal concentration).
Text: as §1, §2, §3

In data set [2] the test system is Human colon adenocarcinoma cell HT-29. In words: cells. The conditions noted are these: for IC50: HT-29, read-out: IC50 (50% inhibition concentration); for CC50: HT-29, read-out: LC50 (50% lethal concentration).
Text: as §1, §2, §3

Data set [3] deals with Human hepatocellular carcinoma cell HepG2. In words: cells. The conditions noted are these: for IC50: HepG2, read-out: IC50 (50% inhibition concentration); for CC50: HepG2, read-out: LC50 (50% lethal concentration).
Text: as §1, §2, §3

Data set [4] concerns Human histocytic lymphoma cell U937. In words: cells. The conditions noted are these: for IC50: U-937, read-out: IC50 (50% inhibition concentration); for CC50: U-937, read-out: LC50 (50% lethal concentration).
Text: as §1, §2, §3

Data set [5] relates to Human lung carcinoma cell A549. In words: cells. The conditions noted are these: for IC50: A549, read-out: IC50 (50% inhibition concentration); for CC50: A549, read-out: LC50 (50% lethal concentration).
Text: as §1, §2, §3

The test system of data set [6] is Human promyelocytic leukemia cell HL-60. In words: cells. The conditions noted are these: for IC50: HL-60, read-out: IC50 (50% inhibition concentration); for CC50: HL-60, read-out: LC50 (50% lethal concentration).
Text: as §1, §2, §3

Data set [7] concerns Human umbilical venal epithelial cell (HUVEC). As to the kind of experiment: cells. The note with it: Homo sapiens, HUVEC, read-out: IC50 (50% inhibition concentration).
Text: as §1, §2, §3

In brackets after ≈: the same amount, converted by molar mass.

With `COC(=O)/C(C)=C\CC12OC(C)(C)C3CC(C=C4C(=O)c5c(O)c6c(c(CC=C(C)C)c5OC431)OC(C)(CCC(O)C(C)(C)O)C=C6)C2=O` (centres unmarked) [methyl 37,38-dihydroxy-gambogate], the “activator of caspases and inducer of apoptosis” value in the data set on caspases was “activator of caspases and an inducer of apoptosis”.

`CC(C)=CCC/C(C)=C/Cc1c(O)c(CC=C(C)C)c2c(c1O)C(=O)C1=CC3CC4C(C)(C)O[C@](CC=C(C)C)(C3=O)[C@@]14O2` (stereo in doubt) [Gh-4301, desoxygambogenin]: the CC50 in “in vitro” was 1.3 µg/mL (≈ 2.16 µM); in [1] it was 56 µg/mL (≈ 93.2 µM); in data set [2], 42 µg/mL (≈ 69.9 µM); in data set [3], 51 µg/mL (≈ 84.9 µM); in [4], above 100 µg/mL; in [5], 6.2 µg/mL (≈ 10.3 µM). Moreover, the CC50 in [6] is above 100 µg/mL. The IC50 is 19 µg/mL (≈ 31.6 µM) in data set [1]; 13 µg/mL (≈ 21.6 µM) in data set [2]; 12 µg/mL (≈ 20 µM) in data set [3]; 11 µg/mL (≈ 18.3 µM) in data set [4]; 0.51 µg/mL (≈ 0.849 µM) in [5]; 3.5 µg/mL (≈ 5.83 µM) in data set [6]. Also, the IC50 in data set [7] worked out at 0.29 µg/mL (≈ 0.483 µM).

On to `CC(C)=CCC[C@]1(C)C=Cc2c(O)c3c(c(CC=C(C)C)c2O1)O[C@]12C(=C[C@@H]4CC1C(C)(C)O[C@]2(C/C=C(\C)C(=O)O)C4=O)C3=O` [Gh-1641, isogambogic acid], for which the CC50 in the data set “in vitro” stood at 1.3 µg/mL (≈ 2.07 µM); in data set [1], 33 µg/mL (≈ 52.5 µM); in [2], 4.4 µg/mL (≈ 7 µM); in [3] it was 4.5 µg/mL (≈ 7.16 µM); in data set [4], 36 µg/mL (≈ 57.3 µM); in data set [5], 3 µg/mL (≈ 4.77 µM). Besides, the CC50 in data set [6] came out at 32 µg/mL (≈ 50.9 µM). Moreover, the IC50 in data set [1] worked out at 1.7 µg/mL (≈ 2.7 µM); in data set [2] it was 1.4 µg/mL (≈ 2.23 µM); in data set [3] it was 0.86 µg/mL (≈ 1.37 µM); in [4], 9.4 µg/mL (≈ 15 µM); in data set [5], 0.47 µg/mL (≈ 0.748 µM); in data set [6], 8 µg/mL (≈ 12.7 µM). Also, the IC50 in data set [7] was determined as 0.18 µg/mL (≈ 0.286 µM).

As for `CC(C)=CCC[C@@]1(C)C=Cc2c(O)c3c(c(CC=C(C)C)c2O1)O[C@]12C(=C[C@@H]4CC1C(C)(C)O[C@]2(C/C=C(/C)C(=O)O)C4=O)C3=O` [Gh-2606, epigambogic acid], the CC50 in the data set “in vitro” worked out at 1.4 µg/mL (≈ 2.23 µM); in [1], 1.6 µg/mL (≈ 2.54 µM); in [2], 2 µg/mL (≈ 3.18 µM); in [3] it was 3 µg/mL (≈ 4.77 µM); in [4], 3.1 µg/mL (≈ 4.93 µM); in data set [5], 0.31 µg/mL (≈ 0.493 µM). Further, the CC50 in data set [6] was 2.4 µg/mL (≈ 3.82 µM). The IC50 in [1] turned out to be 1.3 µg/mL (≈ 2.07 µM); in data set [2], 0.39 µg/mL (≈ 0.62 µM); in data set [3] it was 0.38 µg/mL (≈ 0.604 µM); in data set [4], 0.41 µg/mL (≈ 0.652 µM); in data set [5] it was 0.1 µg/mL (≈ 0.159 µM); in data set [6], 0.66 µg/mL (≈ 1.05 µM). For the same compound, in data set [7], the IC50 was found to be 0.11 µg/mL (≈ 0.175 µM).

`CC(C)=CCC[C@]1(C)C[C@H](O)c2c(O)c3c(c(CC=C(C)C)c2O1)O[C@]12C(=C[C@@H]4CC1C(C)(C)O[C@]2(C/C=C(/C)C(=O)O)C4=O)C3=O` [Gh-2641-1, neogambogic acid]: the CC50 in the data set “in vitro” came to 4.3 µg/mL (≈ 6.65 µM); in [1], 3.5 µg/mL (≈ 5.41 µM); in data set [2], 6.8 µg/mL (≈ 10.5 µM); in [3] it was 4.6 µg/mL (≈ 7.11 µM); in [4], 1 µg/mL (≈ 1.55 µM); in data set [5], 0.22 µg/mL (≈ 0.34 µM). The CC50 in [6] came out at 4.5 µg/mL (≈ 6.96 µM). In addition, the IC50 amounted to 0.2 µg/mL (≈ 0.309 µM) in data set [1]; 2.6 µg/mL (≈ 4.02 µM) in [2]; 1.7 µg/mL (≈ 2.63 µM) in [3]; 0.26 µg/mL (≈ 0.402 µM) in [4]; 0.15 µg/mL (≈ 0.232 µM) in [5]; 0.18 µg/mL (≈ 0.278 µM) in data set [6]. Besides, the IC50 in data set [7] was found to be 0.54 µg/mL (≈ 0.835 µM).

Take `CC(C)=CCc1c2c(c(O)c3c1O[C@]1(C)CCC4C3C1C4(C)C)C(=O)C1=C[C@@H]3CC4C(C)(C)OC(C/C=C(/C)C(=O)O)(C3=O)[C@@]14O2` [Gh-2607-B]: the CC50 in “in vitro” was determined as 1.6 µg/mL (≈ 2.54 µM); in data set [1], 0.68 µg/mL (≈ 1.08 µM); in data set [2], 1 µg/mL (≈ 1.59 µM); in data set [3], 4 µg/mL (≈ 6.36 µM); in data set [4] it was 0.25 µg/mL (≈ 0.398 µM); in data set [5] it was 0.33 µg/mL (≈ 0.525 µM). Moreover, in data set [6], the CC50 was 3.1 µg/mL (≈ 4.93 µM). The IC50 in [1] stood at 0.1 µg/mL (≈ 0.159 µM); in data set [2], 0.3 µg/mL (≈ 0.477 µM); in [3], 0.31 µg/mL (≈ 0.493 µM); in data set [4] it was 0.1 µg/mL (≈ 0.159 µM); in data set [5] it was 0.1 µg/mL (≈ 0.159 µM); in data set [6] it was 0.13 µg/mL (≈ 0.207 µM). For the same compound, the IC50 in data set [7] came to 0.07 µg/mL (≈ 0.111 µM).
